Results taken from US20190127413A1, “Compositions and Methods for Non-Toxic Delivery of Antiprogestins” (Repros Therapeutics Inc., priority 2010, published 2019).
Entries after “also recorded” stand apart in the source; their conditions may differ.

Columns and labels:
[1] = Oral versus vaginal pharmacokinetics in beagles; type: in vivo; settings: 25 mg; for metabolism after peak plasma concentration: oral, micronized powder; for metabolism / peak plasma concentration (Cmax): vaginal suppository
Protocol: Beagles were administered 25 mg of CDB-4124 or CDB-4453 (the monodemethylated metabolite of CDB-4124) formulated as either a micronized powder or a vaginal suppository. […] Moreover, systemic exposure of the drug is much lower when administered locally (compare AUC for CDB-4124 and CDB-4453 when administered vaginally vs. orally).

[2] = system: progesterone-induced endometrial proliferation; assay: Anti-Clauberg study, subcutaneous versus oral; type: in vivo, rabbits
Excerpt: To determine whether the low circulating levels of CDB-4124 when administered locally could have any impact predictive of efficacy, an anti-Clauberg study was run in which immature estradiol-primed rabbits were coadministered progesterone and various doses of CDB-4124 by either subcutaneous or oral administration. At least 3 different highly trained individuals evaluated the rabbit uterus for glandular growth, for complexity and overall progesterone-induced “development”. The inhibition (by percentage) of progesterone-induced endometrial proliferation at each dose was assayed. […] However, maximal inhibition required a 8-fold increase in dosage when administered orally (i.e. 8 mg/kg). Importantly 8 mg/kg corresponds closely to the 50 mg/day dose of CDB-4124 administered to the female subjects described in Example 4.

[3] = Cmax after vaginal administration extrapolated from beagles to humans; type: in vivo; settings: for predicted Cmax for vaginal administration as percentage of the same dose administered orally: humans
Protocol: The maximum circulating concentrations (Cmax) of CDB-4124 obtained following vaginal administration to beagles were extrapolated to humans for the 12.5 mg, 25 mg and 50 mg doses actually administered during the Phase III clinical studies.

[4] = system: primary cultures of human and animal hepatocytes; assay: Metabolism in primary cultures of hepatocytes; type: in vitro ADME; settings: primary hepatocyte cultures
Protocol: (§1) Pharmacokinetic studies performed on participating subjects detected a high Cmax and a Tmax at 1-2 hours following administration. […] Metabolism of CDB-4124 by the liver provides the opportunity for liver damage and greatly reduces the concentration of the antiprogestin before it reaches the systemic circulation. Thus, alternative routes of administration of antiprogestins that avoid first pass metabolism such as, without limitation, intravenous, intramuscular, and sublingual, should allow antiprogestins to be absorbed directly into the systemic circulation and thereby provide a method for treating progestone-dependent conditions while avoiding liver toxicity. Administration routes which avoid first pass metabolism may also require less drug per dose to achieve the same therapeutic benefit relative to oral administration.

[5] = Clinical trials of daily oral CDB-4124 (Proellex) capsules: liver toxicity, liver enzymes; type: in vivo, human
Protocol: The maximum concentrations of CDB-4124 and its mono-demethylated metabolite (CDB-4453) for the 12.5 mg dose were 25% of the 50 mg dose. All liver toxicities resolved in those women that returned for safety follow-ups, including those subjects that developed liver-associated serious adverse effects (SAEs).
To date, over 600 patients, including women with confirmed cases of endometriosis or uterine fibroids, have participated in double blind and open label clinical trials in which patients were administered daily oral capsules containing doses of 12.5 mg, 25 mg or 50 mg CDB-4124 (Proellex) for over one month. Of these patients, about 500 received Proellex and about 130 received a placebo. Of the patients receiving Proellex, about 190 received a dose of 50 mg CDB-4124 per day, about 260 received a dose of 25 mg CDB-4124 per day and about 55 received a dose of 12.5 mg per day.
Liver enzymes were frequently monitored in participating subjects. The liver enzyme level at which the clinical trials would be discontinued was set at an increase in liver aminotransferases greater than, or equal to three times the Upper Limit of Normal (≥3×ULN).
Of the nine subjects with a confirmed increase in liver enzymes ≥3×ULN, seven were severe enough elevations to be reported to the FDA as SAEs. One of these seven subjects had been receiving a dose of 25 mg CDB-4124 per day; the remaining six subjects had been receiving a dose of 50 mg CDB-4124 per day. Liver enzymes ≥3×ULN persisted in five of the nine subjects with a confirmed increase in liver enzymes ≥3×ULN. These five subjects had previously been dosed with the 50 mg dose. One of these subjects is receiving oral medication for treatment of their liver condition. Clinical trials involving CDB-4124 at all doses were voluntarily suspended as a result of these SAEs and were subsequently placed on clinical hold by the United States Food and Drug Administration for safety reasons.

[6] = system: progesterone-induced endometrial proliferation; assay: Anti-Clauberg study, vaginal versus oral (McPhail index); type: in vivo, rabbits
Protocol: Another anti-Clauberg study was run in which immature estradiol-primed rabbits were administered progesterone alone (vehicle control) or were co-administered progesterone and three doses of CDB-4124 by either vaginal or oral administration. The inhibition of progesterone-induced endometrial proliferation at each dose was assayed. FIG. 3 illustrates the decrease in the McPhail index following increasing doses of CDB-4124 administered by either route. Maximal inhibition (i.e. a decrease in the McPhail index to 1.5) occurred at 0.2 mg/kg CDB-4124 when administered vaginally, compared to 0.8 mg/kg when administered orally.

[7] = Pharmacokinetic studies on participating clinical trial subjects, oral CDB-4124; type: in vivo, human; settings: for maximum concentration for the 12.5 mg dose as percentage of the 50 mg dose: oral CDB-4124, parent and mono-demethylated metabolite
Protocol: as §1

[8] = target: T1, glucocorticoid receptor (Homo sapiens, UniProt P04150); settings: cited from earlier work
T1 sequence (P04150 1-777): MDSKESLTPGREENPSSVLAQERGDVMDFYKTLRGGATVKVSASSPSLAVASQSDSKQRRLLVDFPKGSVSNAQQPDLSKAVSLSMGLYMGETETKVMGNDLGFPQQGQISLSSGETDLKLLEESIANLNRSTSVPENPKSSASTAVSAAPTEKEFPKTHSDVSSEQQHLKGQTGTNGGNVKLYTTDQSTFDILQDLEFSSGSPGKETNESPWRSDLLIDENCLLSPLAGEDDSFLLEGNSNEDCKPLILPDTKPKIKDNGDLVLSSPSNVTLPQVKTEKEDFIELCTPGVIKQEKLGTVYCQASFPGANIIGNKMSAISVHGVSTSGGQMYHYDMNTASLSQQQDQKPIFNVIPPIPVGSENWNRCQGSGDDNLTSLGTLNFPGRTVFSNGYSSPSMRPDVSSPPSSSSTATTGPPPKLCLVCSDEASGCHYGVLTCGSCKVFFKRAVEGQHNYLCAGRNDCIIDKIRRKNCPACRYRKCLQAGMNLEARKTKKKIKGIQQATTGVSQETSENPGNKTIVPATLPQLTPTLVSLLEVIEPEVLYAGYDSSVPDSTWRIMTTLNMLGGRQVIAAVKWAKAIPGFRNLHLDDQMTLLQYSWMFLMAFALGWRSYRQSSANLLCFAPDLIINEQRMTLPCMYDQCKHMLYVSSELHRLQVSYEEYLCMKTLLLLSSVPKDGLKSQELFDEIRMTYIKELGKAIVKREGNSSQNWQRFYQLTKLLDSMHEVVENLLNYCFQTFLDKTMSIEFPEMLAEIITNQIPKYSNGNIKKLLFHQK

COCC(=O)[C@@]1(OC(C)=O)CC[C@H]2[C@@H]3CCC4=CC(=O)CCC4=C3[C@@H](c3ccc(N(C)C)cc3)C[C@@]21C [CDB-4124, 21-methoxy-17α-acetoxy-11β-(4 N, N-dimethylaminophenyl)-19-norpregna-4,9-diene-3,20-dione]
systemic exposure (AUC), local (vaginal) versus oral [1]: much lower | metabolism after peak plasma concentration [1]: rapidly metabolized | metabolism [1]: metabolized slowly | peak plasma concentration (Cmax) [1]: relatively low | dose at which maximal inhibition of progesterone-induced endometrial proliferation was observed ([2]; oral): 8 mg/kg | increase in dosage required for maximal inhibition, oral versus subcutaneous ([2]; rabbit, in vivo): 8 fold | dose at which maximal inhibition of progesterone-induced endometrial proliferation was observed ([2]; subcutaneous): less than 1 mg/kg | predicted Cmax for vaginal administration as percentage of the same dose administered orally ([3]; 12.5 mg dose): approximately 6.5% | predicted Cmax for vaginal administration as percentage of the same dose administered orally ([3]; 50 mg dose): approximately 2% | Cmax with 12.5 mg vaginal dose as percentage of that with 50 mg oral dose ([3]; in vivo, po): 2% | production of the mono-demethylated metabolite [4]: rapidly produce the mono-demethylated metabolite | subjects with liver enzyme elevation reported as SAE ([5]; 25 mg CDB-4124 per day): One | subjects with liver enzyme elevation reported as SAE ([5]; 50 mg CDB-4124 per day): six | subjects in whom liver enzymes ≥3×ULN persisted ([5]; 50 mg dose): five | subjects with elevations severe enough to be reported to the FDA as SAEs ([5]; all doses): seven | subjects with increase in liver enzymes ≥3×ULN confirmed by repeat test in 48 hours ([5]; all doses): nine | subjects with increase in liver enzymes ≥3×ULN ([5]; all doses, first test): thirteen | adverse liver toxicity signals ([5]; oral, 12.5 mg, versus placebo): no adverse liver toxicity signals different from placebo | frequency and intensity of liver toxicity effects relative to 50 mg/day ([5]; oral, 25 mg/day): significantly lower in frequency and intensity | women exhibiting severe liver toxicity ([5]; oral, 50 mg/day, Phase III clinical studies): 3-4% | liver toxicity on chronic daily administration ([5]; therapeutic oral dosages, patients): exhibit liver toxicity | dose at which maximal inhibition occurred ([6]; oral): 0.8 mg/kg | dose at which maximal inhibition occurred ([6]; vaginal): 0.2 mg/kg | McPhail index at maximal inhibition ([6]; vaginal 0.2 mg/kg or oral 0.8 mg/kg): 1.5 | monodemethylated metabolite detected (first pass metabolism) ([7]; after oral ingestion of CDB-4124): Large quantities; also recorded: Large amounts | Cmax ([7]; following oral administration): high | Tmax ([7]; human, in vivo, following oral administration): 1 to 2 h | maximum concentration for the 12.5 mg dose as percentage of the 50 mg dose [7]: 25%

CNc1ccc([C@H]2C[C@@]3(C)[C@@H](CC[C@]3(OC(C)=O)C(=O)COC)[C@@H]3CCC4=CC(=O)CCC4=C32)cc1 [CDB-4453, 21-methoxy-17α-acetoxy-11β-(4-N-methylaminophenyl)-19-norpregna-4,9-diene-3,20-dione]
systemic exposure (AUC), local (vaginal) versus oral [1]: much lower | metabolism after peak plasma concentration [1]: rapidly metabolized | metabolism [1]: metabolized slowly | peak plasma concentration (Cmax) [1]: relatively low | anti-glucocorticoid activity relative to parent CDB-4124 [8]: even lower anti-glucocorticoid activity than its parent | maximum concentration for the 12.5 mg dose as percentage of the 50 mg dose [7]: 25%
